# Test results: US20220106304A1, “Transcription Factor BRN2 Inhibitory Compounds as Therapeutics and Methods for Their Use” (The University of British Columbia, priority 2018, published 2022)
# Biological target: T1, BRN2 (Homo sapiens, UniProt P20265)
# T1 sequence (P20265 1-443): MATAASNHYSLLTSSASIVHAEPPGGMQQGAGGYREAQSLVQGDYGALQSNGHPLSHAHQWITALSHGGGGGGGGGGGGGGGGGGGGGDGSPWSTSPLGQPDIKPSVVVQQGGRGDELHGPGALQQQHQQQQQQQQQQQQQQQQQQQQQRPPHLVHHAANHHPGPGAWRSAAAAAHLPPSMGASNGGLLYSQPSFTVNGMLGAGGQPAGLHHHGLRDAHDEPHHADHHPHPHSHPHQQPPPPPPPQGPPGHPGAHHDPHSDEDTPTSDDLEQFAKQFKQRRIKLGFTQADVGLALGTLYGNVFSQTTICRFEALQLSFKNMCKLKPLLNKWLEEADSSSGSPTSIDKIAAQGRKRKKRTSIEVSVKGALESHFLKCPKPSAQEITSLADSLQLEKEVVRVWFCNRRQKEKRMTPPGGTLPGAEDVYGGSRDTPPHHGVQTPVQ
# Assay: cell-based
# Settings: read-out: % BRN2 Inhibition (10 μM), 10 μM compound, 24 hours, 42D^ENZR cells stably expressing BRN2-luciferase reporter; negative = activation
# Source text: Decreased expression of luciferase protein is validated via western blot to confirm downregulation and avoid false positive molecules that inhibit luciferase protein activity and not BRN2-drive luciferase expression. Molecules are prioritized by their inhibition potency to measure direct interaction with BRN2 in Step 2.
# In TABLES 1 and 2, when a single value is mentioned in columns Met Stab % and T½, it refers to compound's stability in MLM and when two values are given they represent HLM/MLM. There is a distinction in TABLES 1 and 2 difference between “Active” and “Specific” or “Specificity”. Compounds are first tested to quantify inhibition of BRN2 transcriptional activity in a luciferase assay to determine “Activity” at […] and 30 μM concentrations. […] Where data is not available “na” is inserted. Where data has yet to be calculated the notation “nc” is used.
row,Compound,inhibition at 10 µM [%]
1,"Cn1c(-c2ccc(-c3ccccc3)o2)nc2ccc(S(N)(=O)=O)cc21 [VPC-18-47, 1-Methyl-2-(5-phenylfuran-2-yl)-1H-benzo[d]imidazole-6-sulfonamide]",39.8
2,"O=[N+]([O-])c1ccc2nc(-c3csc(-c4ccco4)n3)[nH]c2c1 [VPC-18-48, 2-(Furan-2-yl)-4-(6-nitro-1H-benzo[d]imidazol-2-yl)thiazole]",-6.56
3,"Cc1c(-c2csc(-c3ccco3)n2)oc2ccccc12 [VPC-18-53, 2-(Furan-2-yl)-4-(3-methylbenzofuran-2-yl)thiazole]",78.1
4,FC(F)(F)c1ccc2cc(-c3csc(-c4cc[nH]c4)n3)oc2c1 [VPC-18-111],96.2
5,c1ccc2c(-c3cnc(-c4ccoc4)s3)coc2c1 [VPC-18-112],41.8
6,Oc1ccc2cc(-c3csc(-c4ccco4)n3)oc2c1 [VPC-18-113],94
7,Clc1ccc2cc(-c3csc(C4CCCO4)n3)oc2c1 (stereo not shown) [VPC-18-114],92
8,COc1ccc2cc(-c3csc(-c4ccco4)n3)oc2c1 [VPC-18-118],74
9,FC(F)(F)c1ccc2cc(-c3coc(-c4ccco4)n3)oc2c1 [VPC-18-120],88.9
10,Clc1ccc2cc(-c3coc(-c4ccco4)n3)oc2c1 [VPC-18-121],92.7

# Same assay, conditions: read-out: % BRN2 Inhibition (30 μM), 30 μM compound, 24 hours, 42D^ENZR cells stably expressing BRN2-luciferase reporter; negative = activation
row,Compound,inhibition at 30 µM [%]
1,"Cn1c(-c2ccc(-c3ccccc3)o2)nc2ccc(S(N)(=O)=O)cc21 [VPC-18-47, 1-Methyl-2-(5-phenylfuran-2-yl)-1H-benzo[d]imidazole-6-sulfonamide]",82.1
2,"O=[N+]([O-])c1ccc2nc(-c3csc(-c4ccco4)n3)[nH]c2c1 [VPC-18-48, 2-(Furan-2-yl)-4-(6-nitro-1H-benzo[d]imidazol-2-yl)thiazole]",91.2
3,"Cc1c(-c2csc(-c3ccco3)n2)oc2ccccc12 [VPC-18-53, 2-(Furan-2-yl)-4-(3-methylbenzofuran-2-yl)thiazole]",84.5
4,FC(F)(F)c1ccc2cc(-c3csc(-c4cc[nH]c4)n3)oc2c1 [VPC-18-111],98.6
5,c1ccc2c(-c3cnc(-c4ccoc4)s3)coc2c1 [VPC-18-112],81.6
6,Oc1ccc2cc(-c3csc(-c4ccco4)n3)oc2c1 [VPC-18-113],94
7,Clc1ccc2cc(-c3csc(C4CCCO4)n3)oc2c1 (stereo not shown) [VPC-18-114],95
8,COc1ccc2cc(-c3csc(-c4ccco4)n3)oc2c1 [VPC-18-118],92.5
9,FC(F)(F)c1ccc2cc(-c3coc(-c4ccco4)n3)oc2c1 [VPC-18-120],88.8
10,Clc1ccc2cc(-c3coc(-c4ccco4)n3)oc2c1 [VPC-18-121],93.5

# Test system: not listed separately
# Assay: Liver microsome metabolic stability, HLM
# Format: in vitro ADME
# Settings: HLM (first of two values), percent remaining at 60 min, 1 μM compound, 0.25 mg/mL protein, 1 mM NADPH
# Procedure: (§1) Potassium phosphate buffer (Kphos) was prepared by adding 0.647 g potassium phosphate monobasic (KH2PO4) and 3.527 g potassium phosphate dibasic ([…]) to 400 mL of Milli-Q water. pH of the buffer was adjusted to 7.4 and volume was made up to 500 mL.
# (§2) Microsomes (20 mg/mL) were diluted in KH2PO4 buffer to prepare a concentration of 0.357 mg/mL.
# (§3) Stock solutions of BRN2 inhibitors were prepared in DMSO at a concentration of 1 mM
# (§4) A stock solution of 3.33 mM NADPH (3.33×) was prepared by dissolving appropriate amount of NADPH in KH2PO4 buffer.
# (§5) Total Incubation volume: 100 μL
# (§6) Compound concentration: 1 μM
# (§7) Protein Concentration: 0.25 mg/mL
# (§8) An 1120 μL aliquot of Kphos buffer (50 mM, pH 7.4) containing liver microsomes (0.357 mg/mL) were added to individual 2 mL tubes (final concentration 0.25 mg/mL). Test compounds (1 mM) and positive controls were directly spiked into respective tubes to prepare a concentration of 1.428 μM (final concentration 1 μM). From the above mix, 70 μL was added to individual wells of 96 well reaction plates and pre-incubated in a 37° C. water bath for 5 min. All the reactions were initiated by adding 30 μL of 3.33 mM NADPH (final concentration 1 mM). Reactions without NADPH and buffer controls (minus NADPH) at 0 min and 60 min were also incubated to rule out non-NADPH metabolism or chemical instability in the incubation buffer. All reactions were terminated using 100 μL of ice-cold acetonitrile containing internal standard at 0, 5, 15, 30 and 60 min. The plates were centrifuged at 4000 RPM for 15 min and 100 μL aliquots were submitted for analysis by LC-MS/MS.
# (§9) Samples were monitored for parent compounds disappearance in MRM mode using LC-MS/MS.
# (§10) The percent remaining of test compounds and positive control in each sample was determined by considering peak area ratio in the 0 minute sample as 100%. The Half-life of compounds in microsomes is calculated by formula:
# (§11) Half-life (t½) (min)=0.693/k, where k is gradient of line determined from plot of peak area ratio (compound peak area/internal standard peak area) against time.
# (§12) In vitro intrinsic clearance (CL'int) (units in mL/min/kg) was calculated using the formula.
# (§13) [formula] • For liver microsomes, scaling factor used was 45 mg microsomal protein per gm liver. • Indicates liver weight (gm) which varies species wise. For mice the liver weights are 90 gm.
# (§14) Where data is not available “na” is inserted.
row,Compound,Met Stab % (60 mins HLM/MLM) [%]
1,"Cn1c(-c2ccc(-c3ccccc3)o2)nc2ccc(S(N)(=O)=O)cc21 [VPC-18-47, 1-Methyl-2-(5-phenylfuran-2-yl)-1H-benzo[d]imidazole-6-sulfonamide]",54
2,"O=[N+]([O-])c1ccc2nc(-c3csc(-c4ccco4)n3)[nH]c2c1 [VPC-18-48, 2-(Furan-2-yl)-4-(6-nitro-1H-benzo[d]imidazol-2-yl)thiazole]",9
3,"Cc1c(-c2csc(-c3ccco3)n2)oc2ccccc12 [VPC-18-53, 2-(Furan-2-yl)-4-(3-methylbenzofuran-2-yl)thiazole]",39

# Same assay, conditions: human, liver microsomes, pH 7.4; HLM (first of two values), 1 μM compound, 0.25 mg/mL protein; read-out: T1/2 in (mins HLM/MLM)
row,Compound,half-life at 1 µM [min]
1,"Cn1c(-c2ccc(-c3ccccc3)o2)nc2ccc(S(N)(=O)=O)cc21 [VPC-18-47, 1-Methyl-2-(5-phenylfuran-2-yl)-1H-benzo[d]imidazole-6-sulfonamide]",> 60
2,"O=[N+]([O-])c1ccc2nc(-c3csc(-c4ccco4)n3)[nH]c2c1 [VPC-18-48, 2-(Furan-2-yl)-4-(6-nitro-1H-benzo[d]imidazol-2-yl)thiazole]",17
3,"Cc1c(-c2csc(-c3ccco3)n2)oc2ccccc12 [VPC-18-53, 2-(Furan-2-yl)-4-(3-methylbenzofuran-2-yl)thiazole]",42

# Test system: not listed separately
# Assay: Liver microsome metabolic stability, MLM
# Format: in vitro ADME
# Settings: MLM (single value or second of two), percent remaining at 60 min, 1 μM compound, 0.25 mg/mL protein, 1 mM NADPH
# Procedure: as §1, §2, §3, §4, §5, §6, §7, §8, §9, §10, §11, §12, §13, §14
row,Compound,Met Stab % (60 mins HLM/MLM) [%]
1,"Cn1c(-c2ccc(-c3ccccc3)o2)nc2ccc(S(N)(=O)=O)cc21 [VPC-18-47, 1-Methyl-2-(5-phenylfuran-2-yl)-1H-benzo[d]imidazole-6-sulfonamide]",53
2,"O=[N+]([O-])c1ccc2nc(-c3csc(-c4ccco4)n3)[nH]c2c1 [VPC-18-48, 2-(Furan-2-yl)-4-(6-nitro-1H-benzo[d]imidazol-2-yl)thiazole]",2
3,"Cc1c(-c2csc(-c3ccco3)n2)oc2ccccc12 [VPC-18-53, 2-(Furan-2-yl)-4-(3-methylbenzofuran-2-yl)thiazole]",2
4,FC(F)(F)c1ccc2cc(-c3csc(-c4cc[nH]c4)n3)oc2c1 [VPC-18-111],38
5,c1ccc2c(-c3cnc(-c4ccoc4)s3)coc2c1 [VPC-18-112],1
6,Oc1ccc2cc(-c3csc(-c4ccco4)n3)oc2c1 [VPC-18-113],3
7,Clc1ccc2cc(-c3csc(C4CCCO4)n3)oc2c1 (stereo not shown) [VPC-18-114],14
8,COc1ccc2cc(-c3csc(-c4ccco4)n3)oc2c1 [VPC-18-118],1
9,FC(F)(F)c1ccc2cc(-c3coc(-c4ccco4)n3)oc2c1 [VPC-18-120],6
10,Clc1ccc2cc(-c3coc(-c4ccco4)n3)oc2c1 [VPC-18-121],0

# Same assay, conditions: mouse, liver microsomes, pH 7.4; MLM (single value or second of two), 1 μM compound, 0.25 mg/mL protein; read-out: T1/2 in (mins HLM/MLM)
row,Compound,half-life at 1 µM [min]
1,"Cn1c(-c2ccc(-c3ccccc3)o2)nc2ccc(S(N)(=O)=O)cc21 [VPC-18-47, 1-Methyl-2-(5-phenylfuran-2-yl)-1H-benzo[d]imidazole-6-sulfonamide]",> 60
2,"O=[N+]([O-])c1ccc2nc(-c3csc(-c4ccco4)n3)[nH]c2c1 [VPC-18-48, 2-(Furan-2-yl)-4-(6-nitro-1H-benzo[d]imidazol-2-yl)thiazole]",10
3,"Cc1c(-c2csc(-c3ccco3)n2)oc2ccccc12 [VPC-18-53, 2-(Furan-2-yl)-4-(3-methylbenzofuran-2-yl)thiazole]",2
4,FC(F)(F)c1ccc2cc(-c3csc(-c4cc[nH]c4)n3)oc2c1 [VPC-18-111],48
5,c1ccc2c(-c3cnc(-c4ccoc4)s3)coc2c1 [VPC-18-112],9
6,Oc1ccc2cc(-c3csc(-c4ccco4)n3)oc2c1 [VPC-18-113],12
7,Clc1ccc2cc(-c3csc(C4CCCO4)n3)oc2c1 (stereo not shown) [VPC-18-114],25
8,COc1ccc2cc(-c3csc(-c4ccco4)n3)oc2c1 [VPC-18-118],9
9,FC(F)(F)c1ccc2cc(-c3coc(-c4ccco4)n3)oc2c1 [VPC-18-120],13
10,Clc1ccc2cc(-c3coc(-c4ccco4)n3)oc2c1 [VPC-18-121],8
